We go through five molecules from US20100317647A1 (priority 2009, published 2010).

Sequence of human Cat S (P25774 115-331): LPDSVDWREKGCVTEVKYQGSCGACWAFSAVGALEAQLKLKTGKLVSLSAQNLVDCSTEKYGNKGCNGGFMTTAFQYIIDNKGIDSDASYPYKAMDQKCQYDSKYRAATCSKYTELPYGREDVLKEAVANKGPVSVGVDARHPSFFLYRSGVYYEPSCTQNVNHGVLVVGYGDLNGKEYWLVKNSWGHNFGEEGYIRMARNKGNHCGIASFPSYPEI

In this experiment the target is human Cat S (Homo sapiens, UniProt P25774). Kind of experiment: Cathepsin enzyme inhibition assay (fluorogenic peptide substrate cleavage). The experiment is classed as biochemical. The note with it: human Cat S 1 nM; substrate Z-Val-Val-Arg-AMC 20 μM; pH 6.5; fluorescence over 20 minutes. In a few lines:
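Fluorogenic cleavage of Z-Val-Val-Arg-AMC (20 μM) by 1 nM enzyme in 100 mM potassium phosphate pH 6.5, 5 mM EDTA, 5 mM DTT, 0.001% Triton X-100. Reaction started with substrate; fluorescence (ex 360/em 465 nm) followed over 20 minutes. IC50 by standard methods.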
Consider `CO[C@@H]1C[C@H](S(=O)(=O)c2ccc(-c3cnn(CC(=O)O)c3)cc2C(F)(F)F)C[C@H]1C(=O)NC1(C#N)CC1` (racemic) [Example 185, (4-{4-[(1R,3R,4R) and (1S,3S,4S)-3-(1-Cyano-cyclopropylcarbamoyl)-4-methoxy-cyclopentanesulfonyl]-3-trifluoromethyl-phenyl}-pyrazol-1-yl)-acetic acid], for which the midpoint of inhibition, the IC50, lay at 0.725 nM. This counts as sub-nanomolar.
To `N#CC1(NC(=O)C2CC(S(=O)(=O)c3ccc(N4CCC(F)(F)C4)cc3C(F)(F)F)CC2C(=O)N2CC(F)(F)C2)CC1` (centres unmarked) [Example 132, 2-(3,3-Difluoro-azetidine-1-carbonyl)-4-[4-(3,3-difluoro-pyrrolidin-1-yl)-2-trifluoromethyl-benzenesulfonyl]-cyclopentanecarboxylic acid (1-cyano-cyclopropyl)-amide] belongs 1.2 nM; to `Cc1cc(-c2cccc(S(=O)(=O)[C@@H]3C[C@@H](C(=O)NC4(C#N)CC4)[C@H](C(=O)N4CCC(F)(F)C4)C3)c2)ccn1` [Example 203, (1R,2R,4R)-2-(3,3-Difluoro-pyrrolidine-1-carbonyl)-4-[3-(2-methyl-pyridin-4-yl)-benzenesulfonyl]-cyclopentanecarboxylic acid (1-cyano-cyclopropyl)-amide], 0.195 nM.
On to `CNC(=O)Cn1cc(-c2ccc(S(=O)(=O)[C@H]3C[C@@H](OC)[C@H](C(=O)NC4(C#N)CC4)C3)c(C(F)(F)F)c2)cn1` (racemic) [Example 216, (1R,2R,4R) and (1S,2S,4S)-2-Methoxy-4-[4-(1-methylcarbamoylmethyl-1H-pyrazol-4-yl)-2-trifluoromethyl-benzenesulfonyl]-cyclopentanecarboxylic acid (1-cyano-cyclopropyl)-amide], for which the IC50 worked out at 1.6 nM.
Take `N#CC1(NC(=O)[C@@H]2C[C@@H](S(=O)(=O)c3ccc(F)cc3Cl)C[C@H]2COc2ccc(Cl)nc2)CC1` [Example 162, (1R,2R,4S)-4-(2-Chloro-4-fluoro-benzenesulfonyl)-2-(6-chloro-pyridin-3-yloxymethyl)-cyclopentanecarboxylic acid (1-cyano-cyclopropyl)-amide]: the IC50 is 14.7 nM.
